In PubChem BioAssay (NCI):
“And” between values parts separate entries of the source, which are not always exact repeats. Equal entries are not always repeated.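 These data come from cells grown in 96-well plates and exposed to compound for 48 hours at five concentrations. GI50 marks 50% less growth. The concentration for full growth arrest is given as TGI.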

Assays:
Experiment in all cases: NCI-60 cell line screen, 48 h
[1] = system: OVCAR-3 ovarian
[2] = system: NCI-H460 lung
[3] = system: CCRF-CEM leukemia
[4] = system: SF-539 CNS
[5] = system: SK-MEL-28 melanoma
[6] = system: HT29 colon
[7] = system: KM12 colon
[8] = system: EKVX NSCLC
[9] = system: HOP-62 NSCLC
[10] = system: A549 NSCLC

| SMILES | GI50 [1] [µM] | TGI [1] | GI50 [2] [µM] | TGI [2] | GI50 [3] [µM] | TGI [3] | GI50 [4] [µM] | TGI [4] | GI50 [5] [µM] | TGI [5] [µM] | GI50 [6] [µM] | TGI [6] | GI50 [7] [µM] | TGI [7] | GI50 [8] [µM] | TGI [8] [µM] | GI50 [9] [µM] | TGI [9] | GI50 [10] [µM] | TGI [10] [µM] |
| --- | --- | --- | --- | --- | --- | --- | --- | --- | --- | --- | --- | --- | --- | --- | --- | --- | --- | --- | --- | --- |
| COc1cc([C@H](C)c2ccc3ccccc3c2)cc(OC)c1OC | 0.272 | > 100 µM | 0.332 | 18 µM | 0.274 | > 100 µM | 0.297 | > 100 µM | 5.25 | > 100 | 0.294 | > 100 µM | 0.276 | > 100 µM | 0.941 | > 100 | 0.578 | > 100 µM | 0.595 | > 100 |
| Oc1ccc(N=Nc2ccc(Cl)cc2)cc1 | – | 55 µM | – | 34.2 µM | – | > 100 µM | – | 36.7 µM | – | 54.1 | – | 32.2 µM | – | 28.2 µM | – | 31.8 | – | 35.6 µM | – | 31.3 |
| COc1cc2nc(-c3ccc(C(F)(F)F)cc3)cc(OCCCN3CCOCC3)c2cc1OC | 3.72 | 18.4 µM | 0.639 | 13.6 µM | 2.79 | 19.3 µM | 3.18 | 16.4 µM | 1.44 | 3.27 | 0.54 | 15.7 µM | 3.42 | 22 µM | 1.61 | 19.6 | 1.67 | 13.1 µM | 1.04 | 20 |
| COC(=O)CCC/C=C\C[C@H]1C=CC(=O)/C1=C/C[C@@H](O)CCc1cccc(C(F)(F)F)c1 | 1.97 | 4.08 µM | 2.35 | 5.57 µM | 1.09 | 12 µM | 2.9 | 9.24 µM | 1.98 | 5.2 | 2.64 | 6.06 µM | 1.9 | 4.23 µM | 4.52 | 16.4 | 3.32 | 9.15 µM | 3.55 | 12.2 |
| C=CCCCCCCCCCCCC1CCC(CC)N1 (stereo not given) | – | 23 µM | – | 40.7 µM | – | 29 µM | – | 25.3 µM | – | 29.6 | – | 14 µM | – | 13.1 µM | – | 31.4 | – | 28.5 µM | – | 24.8 |
| CCC(=O)c1cn(C)c(=O)c2ccccc12 | – | > 100 µM | – | > 100 µM | – | > 100 µM | – | > 100 µM | – | > 100 | – | > 100 µM | – | > 100 µM | – | > 100 | – | > 100 µM | – | > 100 |
| O=c1ccn(C2OC(CO)C(O)C2O)c(=O)[nH]1 (stereo not given) | > 1000 | > 1000 µM | > 1000 | > 1000 µM | > 1000 | > 1000 µM | > 1000 | > 1000 µM | > 1000 | > 1000 | > 1000 | > 1000 µM | > 1000 | > 1000 µM | > 1000 | > 1000 | > 1000 | > 1000 µM | > 1000 | > 1000 |
| COc1cc(C2c3cc4c(cc3[C@@H](Nc3ccc(C(=O)O)cc3)C3COC(=O)[C@H]23)OCO4)cc(OC)c1O (stereo not given in full) | – | 66.9 µM and > 17.5 µM | – | 17.6 µM and > 17.5 µM | – | 15.1 µM and 8.82 µM | – | 32.7 µM and > 17.5 µM | – | > 100 | – | 64.8 µM and > 17.5 µM | – | 68.5 µM and > 17.5 µM | – | > 100 | – | 33.9 µM and > 17.5 µM | – | > 100 |
| COc1ccc(NC(=O)C2C(=O)N(c3ccc(OC)cc3)C(=O)/C2=N/O)cc1 (stereo not given) | – | > 59.9 µM | – | 46.4 µM | – | > 100 µM | – | 36.7 µM | – | > 96.8 | – | > 100 µM | – | 56.7 µM | – | 97.2 | – | 43.3 µM | – | > 78.7 |
| O=C(Nc1ccccc1)c1ccc(Cl)c([N+](=O)[O-])c1 | – | 43.5 µM | – | 98.9 µM | – | 28.7 µM | – | 60.5 µM | – | 61.4 | – | 70.1 µM | – | 12.7 µM | – | > 100 | – | > 100 µM | – | > 100 |
| CC(=O)N/C(=C\c1ccc(/C=C(\NC(C)=O)c2nc3ccc(Cl)cc3[nH]2)cc1)c1nc2ccccc2[nH]1 | – | > 100 µM | – | > 100 µM | – | > 100 µM | – | > 100 µM | – | > 100 | – | > 100 µM | – | > 100 µM | – | > 100 | – | > 100 µM | – | > 100 |
| COc1ccc(-c2c(C3=NCCN3)nnn2-c2ccccc2)cc1 | – | > 100 µM | – | > 100 µM | – | > 100 µM | – | > 100 µM | – | > 100 | – | > 100 µM | – | > 100 µM | – | > 100 | – | > 100 µM | – | > 100 |
